Tests used:
soybeans (Glycine max.) = assay: Crop plant compatibility (greenhouse, visual scoring); assay type: in vivo; conditions: for damage to crops of leguminous plants, such as soybeans: pre-emergence or post-emergence method, various dosages, visual scoring four to five weeks after application
Description: In further greenhouse experiments, seeds of a substantial number of crop plants and weeds were placed into sandy loam soil and covered with soil. Some of the pots were treated immediately as described under Section 1, and the remaining pots were placed in a greenhouse until the plants had developed two to three true leaves and then sprayed with various dosages of the compounds of the formula (I) or salts thereof, as described in Section 2.

[1] = test system: monocotyledonous and dicotyledonous weeds; assay: Post-emergence effect on weeds (greenhouse, visual scoring); assay type: in vivo, weed grasses and broad-leaved weeds; conditions: 100 g or less of active substance per hectare; against Sinapsis alba, Echinochloa crus-galli, Lolium multiflorum, Chrysanthemum segetum, Setaria viridis, Abutilon theophrasti, Amaranthus retroflexus, Panicum miliaceum, Brachiaria plantaginea, Solanum nigrum, Euphorbia heterophylla, Sorghum halepense, Avena sativa; scored after about 3 to 4 weeks
Description: (§1) Seeds or rhizome pieces of monocotyledonous and dicotyledonous weeds were placed in a sandy loam soil in plastic pots, covered with soil and cultivated in a greenhouse under good growth conditions. Three weeks after sowing, the test plants were treated at the three-leaf stage. The compounds of the formula (I) or their salts, formulated as wettable powders or as emulsion concentrates, were sprayed, at various dosages, onto the green parts of the plants at an application rate of 600 to 800 l of water/ha (converted). After the test plants had remained in the greenhouse for about 3 to 4 weeks under optimum growth conditions, the effect of the preparations was scored visually by comparison with untreated controls. The tested compounds also have good herbicidal post-emergence activity against a broad spectrum of economically important weed grasses and broad-leaved weeds. […] Crop Plant Compatibility

[2] = test system: monocotyledonous and dicotyledonous weed plants; assay: Pre-emergence effect on weeds (greenhouse, visual scoring); assay type: in vivo, weed grasses and broad-leaved weeds; conditions: 100 g or less of active substance per hectare; against Sinapsis alba, Chrysanthemum segetum, Avena sativa, Stellaria media, Echinochloa crus-galli, Lolium multiflorum, Setaria viridis, Abutilon theophrasti, Amaranthus retroflexus, Brachiaria plantaginea, Solanum nigrum, Euphorbia heterophylla, Sorghum halepense, Panicum miliaceum; scored after 3 to 4 weeks
Excerpt: Seeds or rhizome pieces of monocotyledonous and dicotyledonous weed plants were placed in sandy loam soil in cardboard pots and covered with soil. The compounds of the formula (I) or their salts, formulated in the form of wettable powders or emulsion concentrates, were then applied to the surface of the soil cover in the form of aqueous suspensions or emulsions at an application rate of 600 to 800 l of water/ha (converted) in various dosages.
After the treatment, the pots were placed in a greenhouse and kept under good growth conditions for the weeds. After the test plants had emerged, the damage to the plants or the negative effect on the emergence was scored visually after a test period of 3 to 4 weeks by comparison with untreated controls. As shown by the test results, the compounds tested have good herbicidal pre-emergence activity against a broad spectrum of weed grasses and broad-leaved weeds. […] Post-Emergence Effect on Weeds

CIRAR = assay: Inhibition of revegetation of perennial plants; assay type: in vivo; conditions: 600 g of a.i./ha; cut four weeks after application, scored after a further four weeks; 100% = total inhibition
Excerpt: (§2) […] Four weeks after the application, the above-ground parts of the plants were cut off. After a further four weeks, the inhibition of revegetation was scored in percent of the control, 100% corresponding to a total inhibition of revegetation.

LOLPE = assay: Inhibition of revegetation of perennial plants; assay type: in vivo; conditions: 600 g of a.i./ha; cut four weeks after application, scored after a further four weeks; 100% = total inhibition
Excerpt: as §2

Solanum nigrum = assay: Post-emergence effect on weeds; assay type: in vivo; conditions: 30 g of active substance per hectare
Description: as §1

Setaria viridis = assay: Post-emergence effect on weeds; assay type: in vivo; conditions: 30 g of active substance per hectare
Description: as §1

Amaranthus retroflexus = assay: Post-emergence effect on weeds; assay type: in vivo; conditions: 30 g of active substance per hectare
Description: as §1

Echinochloa crus-galli = assay: Post-emergence effect on weeds; assay type: in vivo; conditions: 30 g of active substance per hectare
Description: as §1

Brachiaria plantaginea = assay: Post-emergence effect on weeds; assay type: in vivo; conditions: 30 g of active substance per hectare
Description: as §1

SMILES | damage to crops of leguminous plants, such as soybeans (soybeans (Glycine max.)) | herbicidal action by the post-emergence method [1] | herbicidal action in the pre-emergence method [2] | other results
COc1nc(NC(=O)[N-]S(=O)(=O)c2ncccc2C2=NOCCO2)nc(N(C)C)n1.[Na+] [I-60] | did not damage | very good herbicidal action | very good herbicidal action | –
CN(C)c1nc(NC(=O)NS(=O)(=O)c2ncccc2C2=NOCCO2)nc(OCC(F)(F)F)n1 [I-142] | did not damage | very good herbicidal action | very good herbicidal action | –
CCOc1cc(OC)nc(NC(=O)NS(=O)(=O)c2ncccc2C2=NOCCO2)n1 [I-1] | did not damage | very good herbicidal action | very good herbicidal action | –
O=C([N-]S(=O)(=O)c1ncccc1C1=NOCCO1)Nc1nc(Cl)cc(OCC(F)(F)F)n1.[Na+] [I-145] | did not damage | very good herbicidal action | very good herbicidal action | –
CCOc1cc(Cl)nc(NC(=O)[N-]S(=O)(=O)c2ncccc2C2=NOCCO2)n1.[Na+] [I-22] | did not damage | very good herbicidal action | very good herbicidal action | –
COc1nc(NC(=O)[N-]S(=O)(=O)c2ncccc2C2=NOCCO2)nc(OC)n1.[Na+] [I-52] | did not damage | very good herbicidal action | very good herbicidal action | –
O=C(O)CNCP(=O)(O)O [Glyphosate] | – | – | – | inhibition of revegetation, CIRAR (CIRAR): 25%; inhibition of revegetation, LOLPE (LOLPE): 35%
COc1cc(Cl)nc(NC(=O)[N-]S(=O)(=O)c2ncccc2C2=NOCCO2)n1.[Na+] [I-10] | did not damage | very good herbicidal action | very good herbicidal action | –
COc1cc(OC)nc(NC(=O)NS(=O)(=O)c2ncccc2C2=NOCCO2)n1 [I-11] | did not damage | very good herbicidal action | very good herbicidal action | –
COc1cc(C)nc(NC(=O)[N-]S(=O)(=O)c2ncccc2C2=NOCCO2)n1.[Na+] [I-3] | did not damage | very good herbicidal action | very good herbicidal action | –
Cc1cc(Cl)nc(NC(=O)[N-]S(=O)(=O)c2ncccc2C2=NOCCO2)n1.[Na+] [I-30] | did not damage | very good herbicidal action | very good herbicidal action | –
CCOc1nc(Cl)nc(NC(=O)[N-]S(=O)(=O)c2ncccc2C2=NOCCO2)n1.[Na+] [I-70] | did not damage | very good herbicidal action | very good herbicidal action | –
COc1cc(N(C)C)nc(NC(=O)NS(=O)(=O)c2ncccc2C2=NOCCO2)n1 [I-8] | did not damage | very good herbicidal action | very good herbicidal action | –
COc1cc(OC)nc(NC(=O)[N-]S(=O)(=O)c2ncccc2C2=NOCCO2)n1.[Na+] [I-12] | did not damage | very good herbicidal action | very good herbicidal action | –
COc1cc(Cl)nc(NC(=O)NS(=O)(=O)c2ncccc2C2=NOCCO2)n1 [I-9] | did not damage | very good herbicidal action | very good herbicidal action | damage to soybeans (Glycine max.) (soybeans (Glycine max.); 8 g of active substance per hectare): 0%; herbicidal activity against Solarium nigrum (Solanum nigrum): 100%; herbicidal activity against Setaria viridis (Setaria viridis): 100%; herbicidal activity against Amaranthus retroflexus (Amaranthus retroflexus): 93%; herbicidal activity against Echinochloa crus-galli (Echinochloa crus-galli): 100%; herbicidal activity against Brachiaria plantaginea (Brachiaria plantaginea): 100%
Cc1cc(C)nc(NC(=O)NS(=O)(=O)c2ncccc2C2=NOCCO2)n1 [I-23] | did not damage | very good herbicidal action | very good herbicidal action | –
O=C(Nc1nc(Cl)cc(OCC(F)(F)F)n1)NS(=O)(=O)c1ncccc1C1=NOCCO1 [I-143] | did not damage | very good herbicidal action | very good herbicidal action | –
CCOc1cc(Cl)nc(NC(=O)NS(=O)(=O)c2ncccc2C2=NOCCO2)n1 [I-21] | did not damage | very good herbicidal action | very good herbicidal action | –
Cc1cc(Cl)nc(NC(=O)NS(=O)(=O)c2ncccc2C2=NOCCO2)n1 [I-29] | did not damage | very good herbicidal action | very good herbicidal action | –
COc1nc(NC(=O)NS(=O)(=O)c2ncccc2C2=NOCCO2)nc(OC)n1 [I-51] | did not damage | very good herbicidal action | very good herbicidal action | –
CCOc1cc(OCC)nc(NC(=O)[N-]S(=O)(=O)c2ncccc2C2=NOCCO2)n1.[Na+] [I-14] | did not damage | very good herbicidal action | very good herbicidal action | –

From patent US7557066B2, “Use of sulfonylureas” (Bayer CropScience AG, priority 2004, dated 2009)
